Data: ChEMBL document CHEMBL3507680, “University of Dundee, Gates Library screen for HepG2 cell viability”

Experiment: Human HepG2 cell viability assay in 384 well format
Type: toxicity, cell-based
Parameters: dose 125 nL, time 70.5 hour; concentration not given beside the values
Conditions: HepG2 cells, read-out: Inhibition

SMILES	cytotoxicity at 70.5 h [%]
CC(c1nc(C2CC2)no1)N1CCN(CC(=O)N2CCOCC2)CC1 (stereo not given)	0.558
CCn1cnnc1C1CCN(C(=O)c2c(C)oc(C)c2C)CC1	0.3
CCC(C)NC(=O)NCCC(=O)N1CCN(c2ccccn2)CC1 (stereo not given)	-0.377
CCn1cnnc1C1CCN(C(=O)c2ccc3ccccc3n2)CC1	-3.84
CCn1cnnc1C1CCN(C(=O)c2cccc(-n3cccc3)c2)CC1	-2.68
CC(C)c1nc(C(=O)N2CCOCC2CC(=O)c2ccco2)cs1 (stereo not given)	-2.9
Cc1nc(CN2CCN(C(=O)c3scnc3C)CC2)cs1	-3.33
COCCCN(CCOC)C(=O)Nc1ccccc1-n1cccn1	2.41
Cc1cnc(CNC2CCc3nc(C(C)C)nn3C2)cn1 (stereo not given)	-2.01
Cc1cccc(NC(=O)CN(C)C(=O)c2scnc2C)n1	0.715
CC(C)c1ccc(C(=O)N2CCOCC2CC(=O)c2ccco2)cn1 (stereo not given)	-5.67
O=C(C1CCCC1)N1CCC2(CC1)OCCO2	-1.7
CCN(CC)C(=O)CN(C)C(=O)c1ccc(-c2ccsc2)nc1C	33.4
O=C(CN1CCCCC1Cn1cncn1)Nc1ccncc1 (stereo not given)	3.49
CN(Cc1cnn(C)c1)C(=O)NC1CCCC1	-7.1
CCOc1ncccc1NC(=O)c1cc(C)sc1C	-11
CC(C)CC(=O)N1CCCC1c1ccsc1 (stereo not given)	-10.6
O=C(CCC(=O)N1CCCC1c1ccsc1)N1CCOCC1 (stereo not given)	-5.51
O=C(O)c1nnn(-c2cccc(C(F)(F)F)c2)c1C1CC1	-3.12
Cc1nc(CCNC(=O)Nc2cc(C(F)(F)F)c[nH]c2=O)cs1	-6.32
CC(C)NC(=O)c1nnn(-c2cccc(F)c2)c1C1CC1	-6.18
CC(C)CN1CCC(NC(=O)c2ccc(F)cc2Cl)CC1	-2.96
NC(=O)COc1ccc(CNCc2ccc(Cl)c(F)c2)cc1	-0.573
Cc1nccc(CNC(=O)Nc2cc(C(F)(F)F)c[nH]c2=O)n1	-5.34

SMILES	cytotoxicity at 70.5 h [%]
Cc1cccc(NCC(=O)Nc2cc(F)ccc2F)c1C(N)=O	-8.06
Cc1cc(C)n(CC2CN(CC(=O)Nc3cccnc3)CCO2)n1 (stereo not given)	-4.57
O=C(CN1CCOC(Cn2cccn2)C1)Nc1cccnc1 (stereo not given)	31.9
CCN(CC1CCOC1)C(=O)c1ccc(-c2ccsc2)nc1C (stereo not given)	-7.65
CCN(CC(=O)NC(C)C)C(=O)c1ccc(-c2ccsc2)nc1C	-3.6
O=C(CN1CCCC1Cn1cncn1)Nc1ccnn1C1CCCC1 (stereo not given)	-4.96
Fc1cccc(C2CCCN2Cc2nnnn2C2CC2)c1 (stereo not given)	-8.46
Cc1cc(C)n(Cc2cccc(C(=O)NCCSCC(C)(C)O)c2)n1	-3.16
Cc1nc(C)n(CC2CN(CC(=O)Nc3ccncc3)CCO2)n1 (stereo not given)	-5.56
CCc1nc(CN(C)C2CCN(Cc3nc(C4CC4)no3)C2)no1 (stereo not given)	31.8
CCc1cnc(CN(C)C2CCN(CCCS(=O)(=O)NC)C2)o1 (stereo not given)	2.84
Cc1nn(C)c(N2CCOCC2)c1CNC(c1ccccc1)C1CC1 (stereo not given)	11.3
CC(CN1CCOCC1)NC(=O)c1cc(Cl)c2c(c1)OCCO2 (stereo not given)	0.172
Cc1ccc(NC(=O)N(CCO)Cc2ccsc2)cc1	-0.584
COc1ccc(C2CCCCCN2S(N)(=O)=O)cc1 (stereo not given)	23.5
CCS(=O)(=O)N1CCC(Oc2ccc(C#N)cc2)CC1	24.1
COc1ccc(NC(=O)N(CCO)Cc2ccsc2)c(OC)c1	0.461
CC(C)(C(=O)NCC(=O)NCc1ccccc1)c1ccccc1F	3.35
CCCS(=O)(=O)N1CCC(Oc2ccc(C#N)cc2)CC1	4.2
CC(C)c1nnc2n1CC(CNCc1nc3ccccc3o1)CC2 (stereo not given)	2.4
CC(C)(C)c1n[nH]c(C2CN(C(=O)CCCn3cccn3)CCO2)n1 (stereo not given)	0.387
Cc1noc(C)c1CN1CCC(N(C)Cc2noc(C(C)C)n2)C1 (stereo not given)	5.99
Cc1ncccc1CNCC1CCc2nnc(C(C)C)n2C1 (stereo not given)	-7.03
O=C(NCCNc1ccccn1)NCC1CCS(=O)(=O)C1 (stereo not given)	4.42

SMILES	cytotoxicity at 70.5 h [%]
Cc1nnc(CN(Cc2cccc(Br)c2)C2CC2)o1	-8.25
O=S1(=O)CCC(c2nc(-c3cccc(Br)c3)no2)C1 (stereo not given)	-8.75
Cc1cnn(C2CN(Cc3nnc(-c4ccccc4Cl)o3)C2)c1	5.37
Cc1cc(CS(=O)(=O)N(C)C(C)c2ccc(Cl)cc2)on1 (stereo not given)	-11.1
COC(=O)NCCC(=O)NC(c1ccc(Cl)cc1)C(F)(F)F (stereo not given)	-8.05
Cc1cc(CNC(=O)CCN2CCN(c3ccccn3)CC2)c(C)o1	9.41
COCCN(c1ccncc1)S(=O)(=O)c1cc(C)cc(F)c1	-10.7
N#CCc1ccc(OCC(=O)NS(=O)(=O)c2ccc(Br)s2)cc1	4.36
O=C(NCCNc1cnccn1)NCC1CCS(=O)(=O)C1 (stereo not given)	-7.83
Cc1ncsc1CNC(=O)CCN1CCN(c2ccccn2)CC1	-8.25
CCNC(=O)CN(Cc1ccoc1)C1CCCCC1	-9.92
COCCN(C)S(=O)(=O)c1cc(C)cc(F)c1	-5.49
CCN(CCNCc1cccc(C#N)c1)C1CC1	10.9
Cc1csc(NC(=O)C2(C)CCCO2)n1 (stereo not given)	-7.86
CC(=O)c1ccc(OCC(=O)NS(=O)(=O)c2ccc(Cl)s2)cc1	-10.1
CNC(=O)NC(=O)CNC(CC(F)(F)F)c1ccc(F)cc1 (stereo not given)	4.15
CN(C)C(=O)CNC(CC(F)(F)F)c1ccc(Cl)cc1 (stereo not given)	0.0833
NS(=O)(=O)CCN(CCc1cccc(F)c1)C1CCCC1	-0.787
Cc1cccc(N2CCN(C(=O)c3c(C)nn(C)c3C)CC2)c1C	-0.882
O=C1CC(N(C(=O)COc2ccc(F)cc2F)C2CC2)C(=O)N1 (stereo not given)	-6.63
NC(=O)NC(=O)CCSCc1coc(-c2cccc(Cl)c2)n1	-17.3
O=C1CC(N(C(=O)CCc2cc(F)ccc2F)C2CC2)C(=O)N1 (stereo not given)	-7.39
Cc1ccccc1S(=O)(=O)NC(=O)C1(c2ccccc2)CCC1	-9.55
c1ccc(OCCN2CCC(n3cncn3)CC2)cc1	25.3

SMILES	cytotoxicity at 70.5 h [%]
Cc1ccc(S(=O)(=O)NC(=O)C2(c3ccccc3)CCC2)c(C)c1	-10.7
Cc1ccc(CNC(=O)Cn2c(=O)c3cccnc3n2C)cc1F	-12.5
COCCNC(=O)NC1(c2ccccc2F)CC1	-5.87
CC1(C)CN=C(N2CCN(CCCN3CCOCC3)CC2)S1	-8.84
COc1cccc(OCC(=O)N(C)c2cccnc2N(C)C)c1	-8.02
Cc1nc(SC2CCN(c3sccc3C#N)C2=O)oc1C (stereo not given)	-1.94
CCOC1CCCN(C(=O)c2ccccc2NCc2cccnc2)C1 (stereo not given)	15.9
CC1(C)CN=C(N2CCN(CC3CCCCO3)CC2)S1 (stereo not given)	0.00251
CN(Cc1ccco1)C(=O)CN1CCN(C)c2ccccc2C1	-3
COc1cccc2c1N(S(=O)(=O)c1cc(C(=O)O)cs1)CCC2	-6.55
c1ccc(-c2cnc(CNC3CCc4ncnn4C3)o2)cc1 (stereo not given)	0.0931
CCc1nnsc1C(=O)N1CCN(CC(O)C(C)(C)C)CC1 (stereo not given)	-10.2
CC(NC(=O)N1CCC(CC(N)=O)CC1)c1csc2ccccc12 (stereo not given)	-10.8
O=C(Nc1nnn[nH]1)c1ccc(-n2cccc2)c(F)c1	-9.42
COCc1cc(N(CC(F)F)C2CC2)n2ncnc2n1	-5.91
O=C(O)c1csc(S(=O)(=O)N2CCCc3cc(OC(F)F)ccc32)c1	-10.7
Cc1ccccc1CNCC(O)c1ccc(OC(C)C)cc1 (stereo not given)	-0.135
O=C(CN1CCOc2ccc(Cl)cc21)NCCCn1ccnc1	-5.4
O=C(CN1CCOc2ccc(Cl)cc21)NCc1ncc[nH]1	-2.35
CCCNC(=O)C(C)Nc1ccn(Cc2ccccn2)n1 (stereo not given)	1.09
O=C(c1ccc2nncn2c1)N1CCSC2(CCCCC2)C1	11.5
CCCN1CCC(Nc2nc(CC)ns2)CC1	-2.52
CC1(C)CN(C(=O)c2ccc3nncn3c2)CCS1	-5.72
CCN(C)S(=O)(=O)NCC(O)c1cc2ccccc2s1 (stereo not given)	-0.185

SMILES	cytotoxicity at 70.5 h [%]
COC(=O)c1ccc(Cl)c(CN(C)Cc2ncnn2C)c1	1.01
Cc1c(F)cccc1S(=O)(=O)NCC(C)(C)CC(C)O (stereo not given)	-5.55
CN(Cc1cc(Cl)ccc1Cl)Cc1ncnn1C	-1.99
CC(C)Cc1nc(CN(C)CCOc2ccc(F)cc2)no1	-8.43
Cc1ccccc1OCCN(C)Cc1noc(CC(C)C)n1	4.63
COC(=O)c1cccc(CN(C)Cc2ncnn2C)c1C#N	28.8
COC(=O)N1CCCC(C(=O)N2CCCCC2)C1 (stereo not given)	-4.53
CC(C)Cc1nc(CN(C)CCOc2ccccc2F)no1	12.5
Cc1cc(NC(=O)C(C)Nc2ccn(Cc3ccccn3)n2)on1 (stereo not given)	-10.1
CN(Cc1ccco1)C(=O)CN1CCc2ccccc2C1	-7.16
CNC(=O)C1CCCN(C(=O)C2CCC2)C1 (stereo not given)	-11.6
CCSc1cncc(N2CCC(NC(=O)C3CCCCC3)CC2)n1	-13.5
CCN1CCCCC1C(=O)Nc1cccc(-c2nnc[nH]2)c1 (stereo not given)	-0.846
CCCN1CCCCC1C(=O)Nc1ccc(-c2nnc[nH]2)cc1 (stereo not given)	-4.51
O=C(NC1CCN(c2ncccn2)CC1)c1cccc(-n2ccnc2)c1	-7.96
O=S(=O)(CC1CCCO1)Nc1cc(Cl)ccc1-n1cccn1 (stereo not given)	2.79
O=S(=O)(CC1CCCCO1)Nc1cc(F)ccc1-n1cccn1 (stereo not given)	9.49
CCCS(=O)(=O)CC(=O)Nc1cc(CC(C)(C)C)n[nH]1	-0.508
Cn1ccnc(Sc2ccc(O)cc2)c1=O	-14.3
Cn1ccnc(Sc2cccc(C#N)c2)c1=O	-4.29
Cc1noc(C)c1C[S+]([O-])Cc1cn2cccc(C)c2n1 (stereo not given)	-4.48
Cc1ccc(C)c(Sc2nccn(C)c2=O)c1	-10.6
NC(=O)COc1ccc(CNCc2cc(F)ccc2F)cc1	32.7
CC(NCc1c(C(C)C)nn(C)c1N(C)C)C(=O)NC1CCCC1 (stereo not given)	-6.36
